“Also recorded” adds a separate entry of the source.
Columns and labels:
[1] = Thermal cycling of remineralized dentin samples in artificial saliva, SEM; set-up: species or system human; details: 3 rounds remineralized, 2,500 cycles (90 days) between 5 C and 50 C
Description: To ensure the thermal durability of the newly formed mineral layer on the dentin surface, thermal cycling tests were conducted on remineralized samples. After three rounds of peptide-guided remineralization, the sample was placed in a vial containing an artificial saliva solution consisting of 130 mM KCl, 20 mM HEPES, 1.5 mM CaCl2, 0.9 mM KH2PO4, and 1 mM NaCl. In order to mimic the temperature changes in the natural oral environment, the remineralized sample was cycled between 5 C and 50 C, holding for 30 seconds at each temperature. SEM images were taken of the mineral layer after 200 cycles (6 days) and 2,500 cycles (90 days) to compare the effects of thermal cycling at different time periods.

[2] = Fluoride delivery to tooth surface, EDXS of mineral layer; details: tooth surface treated with shADP5, then ionic fluoride (1100 ppm) delivered with ionic PO4
Description: shADP5 enables the delivery of ionic fluoride delivery to the tooth surface. After the tooth surface was treated shADP5, ionic fluoride was delivered with ionic PO4.

[3] = Visual observation of diffusion and mineralization reaction of calcium and phosphate gels on glass slide; assay type: physicochemical; details: gel formulation, calcium and phosphate gel drops on glass slide
Text: Active ingredients stored separately in their respective gel/varnish/toothpaste formulations is important in preventing premature mineralization reactions. In all formulations, the peptide is to be delivered first, then the ionic calcium/phosphate or ionic calcium/phosphate/fluoride are delivered second. Understanding the reaction time is useful to characterize the prescribed treatment time and procedure. To inform treatment protocol, an experiment was designed in which two drops of gels containing calcium and phosphate were mixed with peptide gel and placed next each other on a glass slide close enough that upon subsequent spreading of the two droplets, they would come to contact with each other at their respective edges. Mineralization reactions were monitored visually be observing parts of the gels turning from clear (unreacted) to white (reacted).
Then the inverses of both quantities were taken to enable the determination of the diffusion constant based on the following equation: 1/t=D (1/x), where t is time, x is the width of reacted mineral (appear as white in FIG. 18) and D is the diffusion constant in units of mm/min. Shown in FIG. 19 is an example of the derived diffusion constants.

Sequence | mineral layer after thermal cycling [1] | fluoride in the mineral layer (EDXS) [2] | extent of mineralization reaction versus without peptide [3]
SYEKSHSQAINTDRT [sADP5, shortened amelogenin derived peptide 5] | still present; also recorded: thermally stable | – | –
SYENSHSQAINVDRT [shADP5] | – | incorporated | more extensive

Reference: patent US11617711B2, “Compositions and methods for dental care” (UNIVERSITY OF WASHINGTON, priority 2018, dated 2023)
